Test results: publication PMC12042115 (mLife, 2025)
Values joined by “and” are separate entries in the source; they are usually repeats but may differ in a detail not shown here. Equal entries are not always repeated. Where two headings read alike, the source gives them in different places.

Tested on: wild‐type BCG cells
Assay type: cell-based, M. bovis BCG
Conditions: for Mean Ratio (GDI5755_2d vs DMSO_2d): 2d; for Ratio: single ratios, GDI5755_3d vs DMSO_3d

O=C(Oc1ccc(Cl)cc1)c1ccc(N2CCOCC2)c([N+](=O)[O-])c1 [GDI‐5755]
Mean Ratio (GDI5755_2d vs DMSO_2d) (protein BCG_3079c A0A0H3M8N0 NADPH-dependent FMN reductase-like domain-containing protein，FMN reductase, up-regulated): 1.67 | Mean Ratio (GDI5755_2d vs DMSO_2d) (protein BCG_3185c A0A0H3M8B9 Possible dioxygenase, up-regulated): 2.02 | Mean Ratio (GDI5755_2d vs DMSO_2d) (protein BCG_3281c A0A0H3MAS0 Probable transmembrane alkane 1-monooxygenase alkB, up-regulated): 1.48 | Mean Ratio (GDI5755_2d vs DMSO_2d) (protein BCG_3298 A0A0H3MAT3 DUF1490 family protein, up-regulated): 1.92 | Mean Ratio (GDI5755_2d vs DMSO_2d) (protein BCG_3319c A0A0H3MAV3 L-lysine 6-transaminase, up-regulated): 1.48 | Mean Ratio (GDI5755_2d vs DMSO_2d) (protein BCG_3476 A0A0H3MB64 Probable dioxygenase, up-regulated): 1.55 | Mean Ratio (GDI5755_2d vs DMSO_2d) (protein BCG_3588 A0A0H3M9C1 Probable conserved membrane protein, up-regulated): 1.81 | Mean Ratio (GDI5755_2d vs DMSO_2d) (protein BCG_3590 A0A0H3MBE7 Rieske-type oxygenase, up-regulated): 1.45 | Mean Ratio (GDI5755_2d vs DMSO_2d) (protein BCG_3591 A0A0H3MID2 Uncharacterized protein,BCG_3591, up-regulated): 1.62 | Mean Ratio (GDI5755_2d vs DMSO_2d) (protein BCG_3826c A1KQ98 Putative S-adenosyl-L-methionine-dependent methyltransferase BCG_3826c, up-regulated): 1.54 | Mean Ratio (GDI5755_2d vs DMSO_2d) (protein BCG_3917c A0A0H3MJE2 Monooxygenase ethA, up-regulated): 1.44 | Mean_Ratio_GDI5755_2d-VS-WT_2d_control (s002 sheet P value, unrounded): 3.462 and 2.763 and 2.713 and 2.648 and 2.17 | Mean_Ratio_GDI5755_2d-VS-WT_2d_control (s002 sheet annot_file, c8 (rounded)): 1.08 and 0.90 and 1.06 and 0.93 and 0.81 | Mean_Ratio_GDI5755_2d-VS-WT_2d_control (s002 sheet annot_file, c9 (unrounded)): 1.083 and 0.8951 and 1.059 and 0.9258 and 0.8124 | Mean_Ratio_GDI5755_3d-VS-WT_3d_control (s003 sheet P value): 3.94 and 2.77 and 2.53 and 2.26 and 2.25 | Mean_Ratio_GDI5755_3d-VS-WT_3d_control (s003 sheet annot_file): 1.18 and 1.02 and 1.00 | Ratio (protein A0A0G2Q9F3, BCG_0030c (Rv3924c), Large ribosomal subunit protein bL34): 0.8126 and 0.7464 and 0.864 and 0.7929 | Ratio (protein A0A0H3M7L0, BCG_2659c (Rv2632c), DUF1876 domain-containing protein): 0.6783 and 0.84 and 0.8345 and 0.8579 | Ratio (protein A0A0H3M8R4, BCG_3395 (Rv1267c), Possible transcriptional regulatory protein embR2): 0.7934 and 0.8013 and 0.8041 and 0.8107 | Ratio (protein A0A0H3M499, BCG_1243 (Rv1180/Rv1181), Probable polyketide beta-ketoacyl synthase pks3): 0.7824 and 0.8155 and 0.7985 and 0.8135 | Ratio (protein A0A0H3M677, BCG_1564 (Rv1500), Probable glycosyltransferase): 0.8075 and 0.8276 and 0.7828 and 0.8014 | Ratio (protein A0A0H3MA33, BCG_1381c (Rv1320c), Possible adenylate cyclase): 0.785 and 0.7965 and 0.7852 and 0.8412 | Ratio (protein A0A0H3MBI4, BCG_2001A (Rv1962A), Antitoxin VapB35): 0.8087 and 0.8452 and 0.7652 and 0.7971 | Ratio (protein A0A0H3MBL1, BCG_3682c (Rv3624c), Hypoxanthine phosphoribosyltransferase): 0.7684 and 0.8491 and 0.778 and 0.8193 | Ratio (protein A0A0H3MDB0, BCG_2775c (Rv2759c), Ribonuclease VapC): 0.8535 and 0.7284 and 0.8794 and 0.7453 | Ratio (protein A1KPC8, BCG_3507c (Rv3441c), Phosphoglucosamine mutase): 0.7677 and 0.7655 and 0.8493 and 0.8355 | proteome downregulated (third day, 2×MIC): 49.6% | Mean_Ratio (GDI5755_3d vs DMSO_3d), protein BCG_0130 (up-regulated, A0A0H3M0N8, Mtb Rv0097, Possible oxidoreductase): 1.5 | Mean_Ratio (GDI5755_3d vs DMSO_3d), protein BCG_0176 (up-regulated, A0A0H3M1F5, Mtb MRA_0147, DUF427 domain-containing protein): 1.5 | Mean_Ratio (GDI5755_3d vs DMSO_3d), protein BCG_0623c (up-regulated, A0A0H3M1W6, Mtb Rv0578c, PE-PGRS family protein): 1.8 | Mean_Ratio (GDI5755_3d vs DMSO_3d), protein BCG_0353 (up-regulated, A0A0H3M1Y1, Mtb Rv0313, Transmembrane protein): 1.6 | Mean_Ratio (GDI5755_3d vs DMSO_3d), protein BCG_0227 (up-regulated, A0A0H3M2R5, Mtb Rv0190, Copper-sensing transcriptional repressor RicR): 1.4 | Mean_Ratio (GDI5755_3d vs DMSO_3d), protein BCG_0726c (up-regulated, A0A0H3M2T8, Mtb Rv0677c, Possible conserved membrane protein mmpS5): 1.4 | Mean_Ratio (GDI5755_3d vs DMSO_3d), protein BCG_1249 (up-regulated, A0A0H3M3D0, Mtb Rv1187, L-glutamate gamma-semialdehyde dehydrogenase): 1.6 | Mean_Ratio (GDI5755_3d vs DMSO_3d), protein BCG_1334 (up-regulated, A0A0H3M3I9, Mtb Rv1275, Lipoprotein lprC): 1.3 | Mean_Ratio (GDI5755_3d vs DMSO_3d), protein A0A0H3M3L0Rv1303 (up-regulated, A0A0H3M3L0, Conserved hypothetical transmembrane protein): 1.4 | Mean_Ratio (GDI5755_3d vs DMSO_3d), protein BCG_0507 (up-regulated, A0A0H3M3L9, Mtb Rv0467, isocitrate lyase): 1.5 | Mean_Ratio (GDI5755_3d vs DMSO_3d), protein BCG_1404c (up-regulated, A0A0H3M3N1, Mtb Rv1342c, Conserved membrane protein): 1.5 | Mean_Ratio (GDI5755_3d vs DMSO_3d), protein BCG_1053 (up-regulated, A0A0H3M3P8, Mtb MRA_1004, Uncharacterized protein): 1.5 | Mean_Ratio (GDI5755_3d vs DMSO_3d), protein BCG_1472c (up-regulated, A0A0H3M3S8, Mtb Rv1411c, Lipoarabinomannan carrier protein LprG): 1.4 | Mean_Ratio (GDI5755_3d vs DMSO_3d), protein BCG_0578c (up-regulated, A0A0H3M3U8, Mtb Rv0534c, 1,4-dihydroxy-2-naphthoate octaprenyltransferase, menA): 1.9 | Mean_Ratio (GDI5755_3d vs DMSO_3d), protein BCG_1661c (up-regulated, A0A0H3M4E4, Mtb Rv1623c, integral membrane cytochrome D ubiquinol oxidase (Subunit I) cydA): 1.6 | Mean_Ratio (GDI5755_3d vs DMSO_3d), protein BCG_1022 (up-regulated, A0A0H3M4W6, Mtb Rv0968, DUF1490 family protein): 1.5 | Mean_Ratio (GDI5755_3d vs DMSO_3d), protein BCG_1787 (up-regulated, A0A0H3M5K5, Mtb Rv1748, DUF4129 domain-containing protein): 1.4 | Mean_Ratio (GDI5755_3d vs DMSO_3d), protein BCG_1584c (up-regulated, A0A0H3M6A1, Mtb Rv1532c, Thioesterase domain-containing protein): 1.3 | Mean_Ratio (GDI5755_3d vs DMSO_3d), protein BCG_1795c (up-regulated, A0A0H3M6T8, Mtb MRA_1768B, Uncharacterized protein): 1.4 | Mean_Ratio (GDI5755_3d vs DMSO_3d), protein BCG_1998c (up-regulated, A0A0H3M7D9, Mtb Rv1959c, Toxin ParE1): 1.4 | Mean_Ratio (GDI5755_3d vs DMSO_3d), protein BCG_2583 (up-regulated, A0A0H3M7F6, Mtb Rv2560, proline and glycine rich transmembrane protein): 1.7 | Mean_Ratio (GDI5755_3d vs DMSO_3d), protein BCG_0282c (up-regulated, A0A0H3M7K8, Mtb Rv0244c, acyl-CoA dehydrogenase fadE5): 1.6 | Mean_Ratio (GDI5755_3d vs DMSO_3d), protein BCG_0287c (up-regulated, A0A0H3M7L3, Mtb Rv0249c, Succinate dehydrogenase [membrane anchor subunit]): 1.4 | Mean_Ratio (GDI5755_3d vs DMSO_3d), protein BCG_2072c (up-regulated, A0A0H3M7M3, Mtb Rv2053c, transmembrane protein): 1.6 | Mean_Ratio (GDI5755_3d vs DMSO_3d), protein BCG_2723 (up-regulated, A0A0H3M7S6, Mtb Rv2710, RNA polymerase sigma factor, sigB): 1.3 | Mean_Ratio (GDI5755_3d vs DMSO_3d), protein BCG_0422c (up-regulated, A0A0H3M7W9, Mtb Rv0384c, Chaperone protein ClpB): 1.5 | Mean_Ratio (GDI5755_3d vs DMSO_3d), protein BCG_3185c (up-regulated, A0A0H3M8B9, Mtb Rv3161c, Dioxygenase): 2.2 | Mean_Ratio (GDI5755_3d vs DMSO_3d), protein BCG_3195c (up-regulated, A0A0H3M8D0, Mtb Rv3171c, Possible non-heme haloperoxidase hpx): 1.4 | Mean_Ratio (GDI5755_3d vs DMSO_3d), protein BCG_0728c (up-regulated, A0A0H3M8M0, Mtb Rv0679c, Conserved hypothetical threonine rich protein): 1.4 | Mean_Ratio (GDI5755_3d vs DMSO_3d), protein BCG_3079c (up-regulated, A0A0H3M8N0, Mtb Rv3054c, NADPH-dependent FMN reductase-like domain-containing protein): 2.0 | Mean_Ratio (GDI5755_3d vs DMSO_3d), protein BCG_3084 (up-regulated, A0A0H3M8N5, Mtb Rv3059, Probable cytochrome P450 136 cyp136): 1.3 | Mean_Ratio (GDI5755_3d vs DMSO_3d), protein BCG_3153c (up-regulated, A0A0H3M8U1, Mtb Rv3130c, Diacylglycerol O-acyltransferase): 1.4 | Mean_Ratio (GDI5755_3d vs DMSO_3d), protein BCG_2517c (up-regulated, A0A0H3M8U9, Mtb Rv2497c, Probable pyruvate dehydrogenase E1 component (Alpha subunit) pdhA): 1.4 | Mean_Ratio (GDI5755_3d vs DMSO_3d), protein BCG_3184c (up-regulated, A0A0H3M8V5, Mtb Rv3160c, Possible transcriptional regulatory protein (Probably tetR-family)): 1.4 | Mean_Ratio (GDI5755_3d vs DMSO_3d), protein BCG_3588 (up-regulated, A0A0H3M9C1, Mtb Rv3524, Serine/threonine-protein kinase PknD(NU-6027 target)): 1.8 | Mean_Ratio (GDI5755_3d vs DMSO_3d), protein BCG_2721c (up-regulated, A0A0H3M9C3, Mtb Rv2708c, DUF3039 domain-containing protein): 1.4 | Mean_Ratio (GDI5755_3d vs DMSO_3d), protein BCG_1115 (up-regulated, A0A0H3M9F1, Mtb Rv1057, YVTN family beta-propeller repeat protein): 1.5 | Mean_Ratio (GDI5755_3d vs DMSO_3d), protein BCG_1130 (up-regulated, A0A0H3M9G5, conserved transmembrane protein): 1.5 | Mean_Ratio (GDI5755_3d vs DMSO_3d), protein BCG_2810c (up-regulated, A0A0H3M9L8, Mtb Rv2792c, Possible resolvase): 1.5
